# In the supplement of paper PMC6580486:
# Tested on: U23674 (mouse alveolar rhabdomyosarcoma primary culture)
# 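Note: alveolar rhabdomyosarcoma tumor culture.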
row,Compound,IC50 cell viability
1,c1ccc(-c2[nH]ncc2-c2ccnc(-c3ccc(OCCn4ccnc4)cc3)c2)nc1,> 10 µM
2,CCN1CCC(CC(=O)Nc2n[nH]c3nnc(-c4cccc(F)c4F)cc23)CC1,5.1 µM
3,CC1=C(C(=O)Nc2ccc3n[nH]c(C)c3c2)C(c2ccc(C(F)(F)F)cc2)CC(=O)N1 (stereo not drawn),> 10 µM
4,NS(=O)(=O)c1ccc(N=Cc2c(O)[nH]c3ccc4ncsc4c23)cc1,> 10 µM
5,COc1ccccc1Nc1ncc(-c2ccccc2)o1,> 10 µM
6,C[C@@H](Oc1cc(-n2cnc3ccc(OC[C@@H](O)CO)cc32)sc1C(N)=O)c1ccccc1Cl,5.4 µM
7,NS(=O)(=O)c1ccc(N=Nc2c(O)[nH]c3ccc(Cl)cc23)cc1,> 10 µM
8,NS(=O)(=O)c1cccc(-c2cc3ccncc3cc2OCc2ccccc2)c1,> 10 µM
9,NS(=O)(=O)c1ccc(Nc2ncc(-c3ccccc3)o2)cc1,> 10 µM
10,Cc1cccc(-c2[nH]ncc2-c2ccc3ncccc3n2)n1,> 10 µM
11,CCOc1nccc2c1nc(-c1nonc1N)n2CC,> 10 µM
12,COc1ccc(-c2ccncc2)cc1C(N)=O,> 10 µM
13,NC(=O)c1ccc2c(-c3ccnc(NCCCO)n3)c(-c3ccc(F)cc3)nn2c1,> 10 µM
14,CCS(=O)(=O)c1ccc(OC)c(Nc2ncc(-c3cccc(-c4ccccc4F)c3)o2)c1,> 10 µM
15,COC(=O)Nc1nc2ccc(Sc3ccc(NC(=O)Nc4cc(C(F)(F)F)ccc4F)cc3)cc2[nH]1,> 10 µM
16,NC(=O)c1ccc(Oc2nccc(-c3c(-c4ccc(F)cc4)ncn3C3CCNCC3)n2)cc1,> 10 µM
17,CCn1cc(-c2ccnc3[nH]ccc23)c(-c2cccc(NC(=O)Nc3ccc(OCc4ccccc4)cc3)c2)n1,> 10 µM
18,Cc1cc(O)cc(C)c1/C=C/c1cncc(C(=O)N(C)C)c1,> 10 µM
19,O=C(O[C@H]1CN[C@H](C#Cc2cc3ncnc(Nc4ccc(OCc5cccc(F)c5)c(Cl)c4)c3s2)C1)N1CCOCC1,> 10 µM
20,Cc1nnc(-c2ccc(C)c(-c3ccc(C(=O)NCc4ccc(Cl)cc4)cc3)c2)o1,> 10 µM
21,CCn1c(-c2nonc2N)nc2c(C#CC(C)(C)O)ncc(OCC3CCCN3)c21 (stereo not drawn),5.2 µM
22,CCn1c(-c2nonc2N)nc2ccc(F)cc21,> 10 µM
23,COc1cc(C=NNc2ncnc3c2cnn3Cc2ccccc2)ccc1O,> 10 µM
24,CC1=C(C(=O)Nc2ccc3[nH]ncc3c2)C(c2ccc3ccccc3c2)CC(=O)N1 (stereo not drawn),> 10 µM
25,NC(=O)Cc1ccccc1Oc1nccc(-c2c(-c3ccc(F)cc3)ncn2C2CCNCC2)n1,> 10 µM

row,Compound,IC50 cell viability
1,COc1ccc2cc(-c3c(-c4ccncc4)nc(-c4ccc([S+](C)[O-])cc4)n3C)ccc2c1 (stereo not drawn),> 10 µM
2,COc1cc2ncn(-c3cc(OCc4cccs4)c(C(N)=O)s3)c2cc1OC,> 10 µM
3,COc1ccc(-c2oc3ncnc(N)c3c2-c2ccc(NC(=O)Nc3cc(C(F)(F)F)ccc3F)cc2)cc1,> 10 µM
4,OCCCNc1nccc(-c2c(-c3ccc(F)cc3)nn3cc(C(F)(F)F)ccc23)n1,> 10 µM
5,CS(=O)(=O)CCNCc1ccc(-c2ccc3ncnc(Nc4ccc(OCc5ccccc5)cc4)c3c2)o1,> 10 µM
6,COc1cccc(-n2cnc3c(N/N=C/c4ccncc4)ncnc32)c1,> 10 µM
7,Nc1nonc1-c1nc2cnccc2n1C1CCCCC1,> 10 µM
8,Nc1nccc(-c2c(-c3ccc(F)cc3)nn3cc(C(F)(F)F)ccc23)n1,> 10 µM
9,CCN1CCC(CC(=O)Nc2n[nH]c3nc(-c4cccs4)c(Br)cc23)CC1,1.3 µM
10,CNC(=O)c1cncc(/C=C/c2c(Cl)cccc2Cl)c1,> 10 µM
11,Oc1[nH]c2ccccc2c1C=Nc1ccc(-n2cncn2)cc1,> 10 µM
12,Nc1nc(-c2cccc(Cl)c2)c(-c2ccc3ncccc3n2)s1,> 10 µM
13,NS(=O)(=O)c1cccc(Nc2cc(-c3ccc(F)cc3)[nH]n2)c1,> 10 µM
14,Fc1ccc(-c2nc3n(c2-c2ccncc2)CCS3)cc1,> 10 µM
15,O=C(Nc1n[nH]c2nnc(-c3cccnc3)cc12)C1CC1,> 10 µM
16,Cc1ccc(-c2cc3c(NC(=O)C4CC4)ncnc3o2)cc1,> 10 µM
17,Fc1ccc(-c2ncn(C3CCNCC3)c2-c2ccnc(Oc3ccccc3)n2)cc1,3.3 µM
18,COc1cc2ncn(-c3cc(OCCc4ccccc4)c(C(N)=O)s3)c2cc1OC,> 10 µM
19,Fc1ccc(-c2ncn(C3CCNCC3)c2-c2ccnc(Oc3ccc4c(c3)OCO4)n2)cc1,> 10 µM
20,CCn1c(-c2nonc2N)nc2cncc(C(=O)NCCNC)c21,> 10 µM
21,COC(=O)Nc1nc2ccc(Oc3ccc(NC(=O)Nc4cccc(Br)c4)cc3)cc2[nH]1,> 10 µM
22,COC(=O)Nc1nc2ccc(S(=O)(=O)c3ccc(NC(=O)Nc4cc(C(F)(F)F)ccc4F)cc3)cc2[nH]1,> 10 µM
23,CN(c1ccc(NC(=O)Nc2c(Cl)cccc2Cl)cc1)c1ccnc(Nc2cccc(CS(C)(=O)=O)c2)n1,> 10 µM
24,Cc1c2ccc(N(C)c3ccnc(Nc4cccc(S(N)(=O)=O)c4)n3)cc2nn1C,> 10 µM
25,COc1ccc(-c2nn3ncccc3c2-c2ccnc(Nc3cccc(C(F)(F)F)c3)n2)cc1,> 10 µM

row,Compound,IC50 cell viability
1,CCCN1CCC(Oc2cc(Nc3nc(Nc4cccc(F)c4C(N)=O)c4cc[nH]c4n3)c(OC)cc2Cl)CC1,3.2 µM
2,CNC(=O)c1cncc(/C=C/c2c(C)cccc2C)c1,> 10 µM
3,CCc1cccc(CC)c1/C=C/c1cncc(C(=O)NC)c1,> 10 µM
4,CN1CCN(C(=O)c2ccc(NC(=O)Nc3ccc(N(C)c4ccnc(Nc5ccc(CS(C)(=O)=O)cc5)n4)cc3)cc2)CC1,> 10 µM
5,COc1cc2ncnc(Nc3ccc(C)c(O)c3)c2cc1OC,> 10 µM
6,COc1cc(C)c(N(C)C(=O)CN(C)C)cc1Nc1nc(Nc2cccc(F)c2C(N)=O)c2cc[nH]c2n1,> 10 µM
7,O=C(O[C@H]1CN[C@H](C#Cc2cc3ncnc(Nc4ccc(Cc5ccccc5)cc4)c3s2)C1)N1CCOCC1,> 10 µM
8,CN(C)CCNC(=O)Nc1ccc(N(C)c2ccnc(Nc3ccc(CS(C)(=O)=O)cc3)n2)cc1,> 10 µM
9,CC1(C)CC(n2cnc(-c3ccc(F)cc3)c2-c2ccnc(N)n2)CC(C)(C)N1,0.2 µM
10,Cc1cc(O)cc(C)c1/C=C/c1cncc(-c2nn[nH]n2)c1,> 10 µM
11,O=C(Nc1n[nH]c2nc(-c3ccco3)ccc12)C1CC1,> 10 µM
12,FC(F)(F)c1cccc(Nc2nccc(-c3cnn4nc(-c5ccccc5)ccc34)n2)c1,> 10 µM
13,Cc1cccc(Nc2ncc(-c3ccccc3)o2)c1,> 10 µM
14,Fc1cccc(COc2ccc(Nc3ncnc4sc(-c5ccco5)cc34)cc2Cl)c1,> 10 µM
15,Cc1ccc(Nc2ccnc(Nc3cccc(C(N)=O)c3)n2)cc1O,> 10 µM
16,CC(=O)Nc1cccc(C#Cc2cncnc2Nc2ccc(OCc3cccc(F)c3)c(Cl)c2)n1,> 10 µM
17,CN1CCN(Cc2ccc(-c3cc4ncnc(Nc5ccc(OCc6cccc(F)c6)c(Cl)c5)c4s3)o2)CC1,> 10 µM
18,CS(=O)(=O)CCN(CC#N)Cc1ccc(-c2ccc3ncnc(Nc4ccc(OCc5cccc(F)c5)c(Cl)c4)c3c2)o1,> 10 µM
19,CC(C)c1ccc(-c2cc(-c3cn[nH]c3-c3ccccn3)ccn2)cc1,> 10 µM
20,Nc1ncnc2occ(-c3ccc(NC(=O)Nc4cc(C(F)(F)F)ccc4F)cc3)c12,> 10 µM
21,COc1ccc(-c2nn3ncccc3c2-c2ccnc(Nc3ccc(Cl)c(C(F)(F)F)c3)n2)cc1,> 10 µM
22,NC(=O)c1sc(-n2cnc3ccc(C(F)(F)F)cc32)cc1OCc1ccccc1Br,> 10 µM
23,CC(C)c1ccc(Nc2nccc(-c3cnn4ncccc34)n2)cc1,> 10 µM
24,c1ccc(-c2[nH]ncc2-c2ccnc(-c3ccc(OCCN4CCOCC4)cc3)c2)nc1,> 10 µM
25,Cc1ccc2c(-c3ccnc(Nc4ccc5c(c4)OCCO5)n3)c(-c3ccc(C(F)(F)F)cc3)nn2n1,> 10 µM

row,Compound,IC50 cell viability
1,C#Cc1cccc(Nc2ncnc3ccc(OCCCCNCCS(C)(=O)=O)cc23)c1,4.9 µM
2,CCn1c(-c2nonc2N)nc2c(C#CC(C)(C)O)nc(CN3CCCC3)cc21,> 10 µM
3,COc1cccc(COc2cc(-n3cnc4ccccc43)sc2C(N)=O)c1,> 10 µM
4,NCc1ccc(-n2c(-c3nonc3N)nc3cnccc32)cc1,3.9 µM
5,c1ccc(-c2nc3n(c2-c2ccc4c(c2)OCO4)CCC3)nc1,> 10 µM
6,NC(=O)c1sc(-n2cnc3cc(C(F)(F)F)ccc32)cc1OCc1ccccc1Br,> 10 µM
7,Cc1ccc(NC(=O)c2ccnc(N3CCCC3)c2)cc1-c1ccc(C(=O)NCC2CC2)cc1,> 10 µM
8,O=C1Nc2ccc(-c3cccnc3)cc2C1=Cc1cc(Br)c(O)c(Br)c1,> 10 µM
9,COc1ccc(Nc2ncc(-c3ccccc3)o2)cc1OC,> 10 µM
10,CS(=O)(=O)CCNCc1ccc(-c2ccc3ncnc(Nc4ccc(OCc5cccc(F)c5)c(C(F)(F)F)c4)c3c2)o1,4.8 µM
11,CC(C)c1ccc2c(N=Nc3ccc(S(N)(=O)=O)cc3)c(O)[nH]c2c1,> 10 µM
12,CN1CCC(n2cnc(-c3ccc(F)cc3)c2-c2ccnc(NCCO)n2)CC1,> 10 µM
13,Nc1nc(-c2ccccn2)c(-c2ccc3ncccc3n2)s1,> 10 µM
14,COC(=O)Nc1nc2ccc(Oc3ccc(NC(=O)Nc4cc(C(F)(F)F)ccc4F)cc3)cc2s1,> 10 µM
15,COc1cc(/C=N/Nc2ncnc3[nH]ncc23)ccc1O,> 10 µM
16,CS(=O)(=O)CCNCc1nc(-c2ccc3ncnc(Nc4ccc(F)c(Cl)c4)c3c2)cs1,> 10 µM
17,COc1cc2ncn(-c3cc(OCc4ccccc4C(F)(F)F)c(C(C)=O)s3)c2cc1OC,> 10 µM
18,Fc1ccc(-c2ncn(CCCN3CCOCC3)c2-c2ccncc2)cc1,> 10 µM
19,CCCNc1cccc(-n2ncc3c(N/N=C/c4ccncc4)ncnc32)c1,> 10 µM
20,Cc1nc(-c2ccccc2)n2nc(NCCCN3CCOCC3)ncc12,> 10 µM
21,CNC(=O)c1cc(-c2ccc(F)cc2)cc(-c2ccc(S(=O)(=O)N3CCCC3)cc2)c1N,> 10 µM
22,Fc1ccc(-c2c(-c3ccncc3)nc3n2CCS3)cc1,> 10 µM
23,Cc1nnc(-c2ccc(C)c(-c3ccc(C(=O)Nc4cccc(C#N)c4)cc3)c2)o1,> 10 µM
